Where a name gives a salt, the structure may show the parent alone.
Legend:
human LSD1(172-833) = human LSD1(172-833) (Homo sapiens (Human), UniProt O60341); test: Measurement of LSD1 inhibitory activity (time-resolved fluorescence, biotin-histone H3 mono methylated K4 peptide); type: biochemical
Procedure: When the turbidity reached 500 Klett units, the culture temperature was changed to 16° C., IPTG (Isopropyl β-D-1-thiogalactopyranoside) having a final concentration of 0.5 mM was added to induce expression, and the cells were cultured further for 14 hr. The culture medium was centrifuged at 6,000 g for 15 min, and Escherichia coil pellets were recovered.
Using Branson ultrasonic disintegrator, the suspension was disrupted by ultrasonication for 3 min, and centrifuged at 33,000 g for 60 min, and the supernatant was recovered. […] It was concentrated to 10 mL with AmiconUltra (NWCO 30K) (Millipore Japan), and purified with HiLoad 26/60 Superdex 200 pg column (GE Healthcare) equilibrated with Buffer A to give hLSD1 purified product (8.4 mg). The protein concentration of hLSD1 was measured by BCA Protein Assay Kit (Thermo Fisher Scientific K.K.) using bovine serum albumin as the standard.
(5) Measurement of LSD1 Inhibitory Activity
After reaction at room temperature for 5 min, 1 mM 2-PCPA solution was added 5 μL to terminate the reaction. A detection solution ([…] potassium fluoride, 0.1% BSA) containing europium-labeled anti-histone H3 antibody (Wako Pure Chemical Industries, Ltd.) and Streptavidin-XL665 (Cisbio) was further added by 5 μL, and the mixture was left standing for 60 min.

MAO-A enzyme = MAO-A enzyme (Homo sapiens (Human), UniProt P21397); test: Measurement of MAO-A inhibitory activity (MAO-Glo Assay); type: biochemical
Chain of MAO-A enzyme (P21397 whole entry): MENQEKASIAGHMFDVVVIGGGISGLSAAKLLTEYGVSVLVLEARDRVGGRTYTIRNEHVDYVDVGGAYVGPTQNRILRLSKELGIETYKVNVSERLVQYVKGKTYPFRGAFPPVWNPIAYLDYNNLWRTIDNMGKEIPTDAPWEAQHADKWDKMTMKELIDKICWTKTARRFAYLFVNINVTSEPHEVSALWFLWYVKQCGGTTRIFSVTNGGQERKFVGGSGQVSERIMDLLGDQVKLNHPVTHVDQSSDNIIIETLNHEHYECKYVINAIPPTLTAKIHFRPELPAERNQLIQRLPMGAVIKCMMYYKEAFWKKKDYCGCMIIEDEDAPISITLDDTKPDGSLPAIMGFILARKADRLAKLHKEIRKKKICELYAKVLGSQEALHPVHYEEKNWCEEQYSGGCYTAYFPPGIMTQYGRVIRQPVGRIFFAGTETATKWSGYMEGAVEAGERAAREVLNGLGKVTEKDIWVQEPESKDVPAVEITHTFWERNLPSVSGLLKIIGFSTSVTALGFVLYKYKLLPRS

MAO-B enzyme = MAO-B enzyme (Homo sapiens (Human), UniProt P27338); test: Measurement of MAO-B inhibitory activity (MAO-Glo Assay); settings: read-out: MAO-B IC50 value;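 note: luminescence read-out, compound preincubated 10 min with enzyme then reacted 60 min at room temperature, inhibition relative to enzyme reaction without compound, blank lacking enzyme and compound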
Chain of MAO-B enzyme (P27338 whole entry): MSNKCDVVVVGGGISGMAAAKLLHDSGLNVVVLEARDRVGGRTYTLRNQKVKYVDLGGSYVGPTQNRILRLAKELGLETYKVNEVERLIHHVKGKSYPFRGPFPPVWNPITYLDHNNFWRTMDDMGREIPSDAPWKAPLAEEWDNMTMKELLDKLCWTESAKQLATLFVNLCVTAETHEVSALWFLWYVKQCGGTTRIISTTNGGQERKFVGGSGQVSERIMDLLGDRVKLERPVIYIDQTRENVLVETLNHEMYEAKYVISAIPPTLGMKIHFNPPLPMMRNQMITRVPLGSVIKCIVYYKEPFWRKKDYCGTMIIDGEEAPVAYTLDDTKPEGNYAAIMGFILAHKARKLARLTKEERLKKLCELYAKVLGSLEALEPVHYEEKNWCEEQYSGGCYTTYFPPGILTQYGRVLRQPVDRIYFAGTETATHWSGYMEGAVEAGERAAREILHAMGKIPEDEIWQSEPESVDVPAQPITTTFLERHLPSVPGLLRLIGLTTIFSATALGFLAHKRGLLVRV

Cn1cc(NC(=O)c2ccc([C@@H]3C[C@H]3NCC3CC3)cc2)cn1 (relative stereo) [Example 53, 4-(trans-2-((cyclopropylmethyl)amino)cyclopropyl)-N-(1-methyl-1H-pyrazol-4-yl)benzamide dihydrochloride]
IC50 (human LSD1(172-833)): < 0.1 µM | IC50 (MAO-A enzyme): > 10 µM | IC50 (MAO-B enzyme): > 10 µM

O=C(Nc1cccc(C(F)(F)F)c1)c1ccc([C@@H]2C[C@H]2NC2CCS(=O)(=O)CC2)cc1 (relative stereo) [Example 62, 4-(trans-2-((1,1-dioxidotetrahydro-2H-thiopyran-4-yl)amino)cyclopropyl)-N-(3-(trifluoromethyl)phenyl)benzamide hydrochloride]
IC50 (human LSD1(172-833)): < 0.1 µM | IC50 (MAO-A enzyme): > 10 µM | IC50 (MAO-B enzyme): 4.8 µM

CN(C(=O)c1cccc([C@@H]2C[C@H]2NCC2CC2)c1)c1ccccc1 (relative stereo) [Example 80, 3-(trans-2-((cyclopropylmethyl)amino)cyclopropyl)-N-methyl-N-phenylbenzamide hydrochloride]
IC50 (human LSD1(172-833)): < 0.1 µM | IC50 (MAO-A enzyme): 0.9 µM | IC50 (MAO-B enzyme): > 10 µM

O=C(Nc1cccc(-c2ncccn2)c1)c1cccc([C@@H]2C[C@H]2NCC2CC2)c1 (relative stereo) [Example 81, 3-(trans-2-((cyclopropylmethyl)amino)cyclopropyl)-N-(3-(pyrimidin-2-yl)phenyl)benzamide dihydrochloride]
IC50 (human LSD1(172-833)): < 0.1 µM | IC50 (MAO-A enzyme): 5.2 µM | IC50 (MAO-B enzyme): > 10 µM

O=C(NC1CCCC1)c1cccc([C@@H]2C[C@H]2NCC2CCOCC2)c1 (relative stereo) [Example 83, N-cyclopentyl-3-(trans-2-((tetrahydro-2H-pyran-4-ylmethyl)amino)cyclopropyl)benzamide hydrochloride]
IC50 (human LSD1(172-833)): < 0.1 µM | IC50 (MAO-A enzyme): > 10 µM | IC50 (MAO-B enzyme): > 10 µM

CCn1cc(NC(=O)c2cccc([C@@H]3C[C@H]3NCC3CCOCC3)c2)cn1 (relative stereo) [Example 86, N-(1-ethyl-1H-pyrazol-4-yl)-3-(trans-2-((tetrahydro-2H-pyran-4-ylmethyl)amino)cyclopropyl)benzamide dihydrochloride]
IC50 (human LSD1(172-833)): < 0.1 µM | IC50 (MAO-A enzyme): > 10 µM | IC50 (MAO-B enzyme): > 10 µM

CC(C)(C)n1cc(NC(=O)c2cccc([C@@H]3C[C@H]3NCC3CCOCC3)c2)cn1 (relative stereo) [Example 89, N-(1-tert-butyl-1H-pyrazol-4-yl)-3-(trans-2-((tetrahydro-2H-pyran-4-ylmethyl)amino)cyclopropyl)benzamide dihydrochloride]
IC50 (human LSD1(172-833)): < 0.1 µM | IC50 (MAO-A enzyme): > 10 µM | IC50 (MAO-B enzyme): > 10 µM

Cc1ncc(NC(=O)c2cccc([C@@H]3C[C@H]3NCC3CCOCC3)c2)s1 (relative stereo) [Example 90, N-(2-methyl-1,3-thiazol-5-yl)-3-(trans-2-((tetrahydro-2H-pyran-4-ylmethyl)amino)cyclopropyl)benzamide dihydrochloride]
IC50 (human LSD1(172-833)): < 0.1 µM | IC50 (MAO-A enzyme): > 10 µM | IC50 (MAO-B enzyme): > 10 µM

Cc1cc(NC(=O)c2cccc([C@@H]3C[C@H]3NCC3CCOCC3)c2)on1 (relative stereo) [Example 92, N-(3-methyl-1,2-oxazol-5-yl)-3-(trans-2-((tetrahydro-2H-pyran-4-ylmethyl)amino)cyclopropyl)benzamide hydrochloride]
IC50 (human LSD1(172-833)): < 0.1 µM | IC50 (MAO-A enzyme): > 10 µM | IC50 (MAO-B enzyme): > 10 µM

O=C(NCCc1ccccc1)c1cccc([C@@H]2C[C@H]2NCC2CC2)c1 (relative stereo) [Example 120, 3-(trans-2-((cyclopropylmethyl)amino)cyclopropyl)-N-(2-phenylethyl) benzamide trifluoroacetate]
IC50 (human LSD1(172-833)): < 0.1 µM | IC50 (MAO-A enzyme): 9.6 µM | IC50 (MAO-B enzyme): > 10 µM

O=C(Nc1cccc(F)c1)c1cccc([C@@H]2C[C@H]2NCC2CC2)c1 (relative stereo) [Example 122, 3-(trans-2-((cyclopropylmethyl)amino)cyclopropyl)-N-(3-fluorophenyl) benzamide trifluoroacetate]
IC50 (human LSD1(172-833)): < 0.1 µM | IC50 (MAO-A enzyme): > 10 µM | IC50 (MAO-B enzyme): > 10 µM

O=C(Nc1ccc(OC(F)(F)F)cc1)c1cccc([C@@H]2C[C@H]2NCC2CC2)c1 (relative stereo) [Example 123, 3-(trans-2-((cyclopropylmethyl)amino)cyclopropyl)-N-(4-(trifluoromethoxy)phenyl)benzamide trifluoroacetate]
IC50 (human LSD1(172-833)): < 0.1 µM | IC50 (MAO-A enzyme): > 10 µM | IC50 (MAO-B enzyme): > 10 µM

CS(=O)(=O)c1ccc(NC(=O)c2cccc([C@@H]3C[C@H]3NCC3CC3)c2)cc1 (relative stereo) [Example 124, 3-(trans-2-((cyclopropylmethyl)amino)cyclopropyl)-N-(4-(methylsulfonyl)phenyl)benzamide trifluoroacetate]
IC50 (human LSD1(172-833)): < 0.1 µM | IC50 (MAO-A enzyme): > 10 µM | IC50 (MAO-B enzyme): > 10 µM

O=C(Nc1ccc(-c2cn3c(n2)SCC3)cc1)c1cccc([C@@H]2C[C@H]2NCC2CC2)c1 (relative stereo) [Example 127, 3-(trans-2-((cyclopropylmethyl)amino)cyclopropyl)-N-(4-(2,3-dihydroimidazo[2,1-b][1,3]thiazol-6-yl)phenyl)benzamide bis(trifluoroacetate)]
IC50 (human LSD1(172-833)): < 0.1 µM | IC50 (MAO-A enzyme): > 10 µM | IC50 (MAO-B enzyme): > 10 µM

O=C(Nc1ccc(Cc2ccccc2)cc1)c1cccc([C@@H]2C[C@H]2NCC2CC2)c1 (relative stereo) [Example 129, N-(4-benzylphenyl)-3-(trans-2-((cyclopropylmethyl)amino)cyclopropyl)benzamide trifluoroacetate]
IC50 (human LSD1(172-833)): < 0.1 µM | IC50 (MAO-A enzyme): > 10 µM | IC50 (MAO-B enzyme): > 10 µM

Cc1cc(C)nc(Sc2cccc(NC(=O)c3cccc([C@@H]4C[C@H]4NCC4CC4)c3)c2)n1 (relative stereo) [Example 132, 3-(trans-2-((cyclopropylmethyl)amino)cyclopropyl)-N-(3-((4,6-dimethylpyrimidin-2-yl)sulfanyl)phenyl)benzamide trifluoroacetate]
IC50 (human LSD1(172-833)): < 0.1 µM | IC50 (MAO-A enzyme): > 10 µM | IC50 (MAO-B enzyme): > 10 µM

O=C(Nc1ccc(Oc2ccc(F)cc2)nc1)c1cccc([C@@H]2C[C@H]2NCC2CC2)c1 (relative stereo) [Example 137, 3-(trans-2-((cyclopropylmethyl)amino)cyclopropyl)-N-(6-(4-fluorophenoxyl)pyridin-3-yl)benzamide bis(trifluoroacetate)]
IC50 (human LSD1(172-833)): < 0.1 µM | IC50 (MAO-A enzyme): > 10 µM | IC50 (MAO-B enzyme): > 10 µM

O=C(Nc1ccc2nccnc2c1)c1cccc([C@@H]2C[C@H]2NCC2CC2)c1 (relative stereo) [Example 143, 3-(trans-2-((cyclopropylmethyl)amino)cyclopropyl)-N-(quinoxalin-6-yl)benzamide bis(trifluoroacetate)]
IC50 (human LSD1(172-833)): < 0.1 µM | IC50 (MAO-A enzyme): 2.1 µM | IC50 (MAO-B enzyme): > 10 µM

O=C(Nc1ccc2ncsc2c1)c1cccc([C@@H]2C[C@H]2NCC2CC2)c1 (relative stereo) [Example 144, N-(1,3-benzothiazol-6-yl)-3-(trans-2-((cyclopropylmethyl)amino)cyclopropyl)benzamide trifluoroacetate]
IC50 (human LSD1(172-833)): < 0.1 µM | IC50 (MAO-A enzyme): > 10 µM | IC50 (MAO-B enzyme): > 10 µM

O=C(Nc1ccc2[nH]ncc2c1)c1cccc([C@@H]2C[C@H]2NCC2CC2)c1 (relative stereo) [Example 146, 3-(trans-2-((cyclopropylmethyl)amino)cyclopropyl)-N-(1H-indazol-5-yl)benzamide trifluoroacetate]
IC50 (human LSD1(172-833)): < 0.1 µM | IC50 (MAO-A enzyme): > 10 µM | IC50 (MAO-B enzyme): > 10 µM

O=C(Nc1ccc2[nH]c(=O)sc2c1)c1cccc([C@@H]2C[C@H]2NCC2CC2)c1 (relative stereo) [Example 147, 3-(trans-2-((cyclopropylmethyl)amino)cyclopropyl)-N-(2-oxo-2,3-dihydro-1,3-benzothiazol-6-yl)benzamide trifluoroacetate]
IC50 (human LSD1(172-833)): < 0.1 µM | IC50 (MAO-A enzyme): > 10 µM | IC50 (MAO-B enzyme): > 10 µM

CCN1C(=O)COc2cc(NC(=O)c3cccc([C@@H]4C[C@H]4NCC4CC4)c3)ccc21 (relative stereo) [Example 149, 3-(trans-2-((cyclopropylmethyl)amino)cyclopropyl)-N-(4-ethyl-3-oxo-3,4-dihydro-2H-1,4-benzoxazin-7-yl)benzamide trifluoroacetate]
IC50 (human LSD1(172-833)): < 0.1 µM | IC50 (MAO-A enzyme): > 10 µM | IC50 (MAO-B enzyme): > 10 µM

O=C(Nc1cnn(CC(F)(F)F)c1)c1cccc([C@@H]2C[C@H]2NCC2CC2)c1 (relative stereo) [Example 151, 3-(trans-2-((cyclopropylmethyl)amino)cyclopropyl)-N-(1-(2,2,2-trifluoroethyl)-1H-pyrazol-4-yl)benzamide hydrochloride]
IC50 (human LSD1(172-833)): < 0.1 µM | IC50 (MAO-A enzyme): > 10 µM | IC50 (MAO-B enzyme): > 10 µM

Cc1cc(NC(=O)c2cccc([C@@H]3C[C@H]3NCC3CC3)c2)sn1 (relative stereo) [Example 152, 3-(trans-2-((cyclopropylmethyl)amino)cyclopropyl)-N-(3-methyl-1,2-thiazol-5-yl)benzamide hydrochloride]
IC50 (human LSD1(172-833)): < 0.1 µM | IC50 (MAO-A enzyme): > 10 µM | IC50 (MAO-B enzyme): > 10 µM

Reference: US9751885B2, “Cyclopropanamine compound and use thereof” (Takeda Pharmaceutical Company Limited, priority 2012, dated 2017)
